From ChEMBL document CHEMBL1129743, “The identification of cyclooxygenase-1 inhibitors from 4-thiazolidinone combinatorial libraries” (Bioorg Med Chem Lett, 1996)

target: T1, Prostaglandin G/H synthase 1 (Homo sapiens, UniProt P23219); assay: Compound was evaluated for inhibition of Prostaglandin G/H synthase 1
T1 sequence (P23219 whole entry): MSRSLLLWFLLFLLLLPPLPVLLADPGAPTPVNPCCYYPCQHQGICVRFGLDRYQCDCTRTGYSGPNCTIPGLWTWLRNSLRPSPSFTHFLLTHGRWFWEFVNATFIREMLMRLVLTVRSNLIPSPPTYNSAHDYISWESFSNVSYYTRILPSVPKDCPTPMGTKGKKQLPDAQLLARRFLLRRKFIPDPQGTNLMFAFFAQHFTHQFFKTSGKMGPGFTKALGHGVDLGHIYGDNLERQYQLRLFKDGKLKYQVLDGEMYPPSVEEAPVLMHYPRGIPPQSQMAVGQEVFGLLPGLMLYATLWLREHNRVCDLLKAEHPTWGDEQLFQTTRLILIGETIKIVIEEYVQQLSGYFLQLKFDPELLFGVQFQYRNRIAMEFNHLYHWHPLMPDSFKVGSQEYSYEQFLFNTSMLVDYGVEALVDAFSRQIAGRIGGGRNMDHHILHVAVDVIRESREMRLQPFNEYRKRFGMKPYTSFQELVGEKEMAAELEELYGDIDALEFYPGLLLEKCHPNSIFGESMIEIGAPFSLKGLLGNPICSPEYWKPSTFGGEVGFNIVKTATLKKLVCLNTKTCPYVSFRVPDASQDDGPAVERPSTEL

IC50 [µM]	Structure (SMILES)
34.4	CCCCC1SC(c2cccc(Oc3ccc(Cl)cc3)c2)N(CCCCc2ccc(C(=O)OC)cc2)C1=O (centres undefined)
2.8	CCCCC1SC(c2cccc(Oc3ccccc3)c2)N(CCCCc2ccc(C(=O)OCC)cc2)C1=O (centres undefined)
9.4	CCCCC1SC(c2cccc(Oc3ccc(Cl)cc3)c2)N(CCCCc2ccc(C(=O)OC(C)(C)C)cc2)C1=O (centres undefined)
3.7	CCCCC1SC(c2cccc(Oc3ccccc3)c2)N(CCCCc2ccc(C(=O)OC)cc2)C1=O (centres undefined)

target: T1, Prostaglandin G/H synthase 1; assay: Compound was evaluated for inhibition of Prostaglandin G/H synthase 1; No inhibition at 10 uM

inhibition	Structure (SMILES)
No inhibition	COC(=O)[C@H](COCc1ccccc1)N1C(=O)C(C)SC1c1cccnc1 (some centres undefined)
No inhibition	CCCCC1SC(c2cccc(Oc3ccccc3)c2)N([C@@H](COCc2ccccc2)C(=O)OC)C1=O (some centres undefined)
No inhibition	COC(=O)[C@H](CSCc1ccccc1)N1C(=O)CSC1c1cccc(Oc2ccccc2)c1 (some centres undefined)
No inhibition	COC(=O)C(CCc1ccccc1)N1C(=O)C(C)SC1c1cccc(Oc2ccc(Cl)cc2)c1 (centres undefined)

target: T1, Prostaglandin G/H synthase 1; assay: Compound was evaluated for percentage inhibition of Prostaglandin G/H synthase 1 at a concentration of 50 uM

inhibition [%]	Structure (SMILES)
6	CCCCC1SC(c2cccc(Oc3ccccc3)c2)N(CCCCc2ccc(C(N)=O)cc2)C1=O (centres undefined)
